Measurements: ChEMBL document CHEMBL3885881, “DrugMatrix”

Species: Rattus norvegicus
Test: DrugMatrix - Regimen: Daily Repeat
Format: toxicity, organism-based, Sprague-Dawley
Parameters: regimen Daily Repeat, gender Male, age 6-8 weeks
Conditions: in vivo, po, route oral GAVAGE, […]; for ABSOLUTE BASOPHIL / ABSOLUTE EOSINOPHIL / ABSOLUTE LYMPHOCYTE / ABSOLUTE MONOCYTE / ABSOLUTE SEGMENTED NEUTROPHIL / BASOPHIL / EOSINOPHIL / ERYTHROCYTE COUNT / HEMATOCRIT / HEMOGLOBIN / LEUKOCYTE COUNT / LYMPHOCYTE / MEAN CORPUSCULAR HEMOGLOBIN / MEAN CORPUSCULAR HEMOGLOBIN CONCENTRATION / MEAN CORPUSCULAR VOLUME / MONOCYTE / NEUTROPHIL / NUCLEATED RED BLOOD CELLS / PLATELET COUNT: tissue Blood; for ALANINE AMINOTRANSFERASE / ALBUMIN / ALKALINE PHOSPHATASE / ASPARTATE AMINOTRANSFERASE / BLOOD UREA NITROGEN / CARBON DIOXIDE / CHLORIDE / CHOLESTEROL / CREATINE PHOSPHOKINASE / CREATININE / GLUCOSE / LACTATE DEHYDROGENASE / LIPASE / PHOSPHORUS / POTASSIUM / SODIUM / TOTAL BILIRUBIN / TOTAL PROTEIN / URIC ACID: tissue Plasma
[1] = 0 mg/kg, 72 h, dose level Control, time 3 day
[2] = 0 mg/kg, 120 h, dose level Control, time 5 day
[3] = 100 mg/kg, 72 h, dose level M1, time 3 day

SMILES: CC(C)(c1ccc(O)cc1)c1ccc(O)cc1 [BISPHENOL A]
- ABSOLUTE BASOPHIL [1]: 0 CELLS/uL
- ABSOLUTE EOSINOPHIL [1]: 33 CELLS/uL
- ABSOLUTE LYMPHOCYTE [1]: 9048.5 CELLS/uL
- ABSOLUTE MONOCYTE [1]: 80.17 CELLS/uL
- ABSOLUTE SEGMENTED NEUTROPHIL [1]: 1521.67 CELLS/uL
- BASOPHIL [1]: 0%
- EOSINOPHIL [1]: 0.17%
- ERYTHROCYTE COUNT [1]: 5.46 x10E6/uL
- HEMATOCRIT [1]: 32.87%
- HEMOGLOBIN [1]: 12.95 G/DL
- LEUKOCYTE COUNT [1]: 10.68 x10E3/uL
- LYMPHOCYTE [1]: 86.67%
- MEAN CORPUSCULAR HEMOGLOBIN [1]: 23.72 pg
- MEAN CORPUSCULAR HEMOGLOBIN CONCENTRATION [1]: 39.4 G/DL
- MEAN CORPUSCULAR VOLUME [1]: 60.18 fL
- MONOCYTE [1]: 0.83%
- NEUTROPHIL [1]: 12.33%
- NUCLEATED RED BLOOD CELLS [1]: 0 /100WBC
- PLATELET COUNT [1]: 1211.33 x10E3/uL
- ALANINE AMINOTRANSFERASE [1]: 76.67 u/L
- ALBUMIN [1]: 3.93 G/DL
- ALKALINE PHOSPHATASE [1]: 317.17 u/L
- ASPARTATE AMINOTRANSFERASE [1]: 81.17 u/L
- BLOOD UREA NITROGEN [1]: 12.33 mg/dL
- CARBON DIOXIDE [1]: 31.17 mmol/L
- CHLORIDE [1]: 98.33 MEQ/L
- CHOLESTEROL [1]: 67.17 mg/dL
- CREATINE PHOSPHOKINASE [1]: 312.33 u/L
- CREATININE [1]: 0.19 mg/dL
- GLUCOSE [1]: 165.5 mg/dL
- LACTATE DEHYDROGENASE [1]: 94.5 u/L
- LIPASE [1]: 9.83 u/L
- PHOSPHORUS [1]: 10.1 mg/dL
- POTASSIUM [1]: 5.16 MEQ/L
- SODIUM [1]: 143.02 MEQ/L
- TOTAL BILIRUBIN [1]: 0.2 mg/dL
- TOTAL PROTEIN [1]: 5.88 G/DL
- URIC ACID [1]: 0.68 mg/dL
- ABSOLUTE BASOPHIL [2]: 0 CELLS/uL
- ABSOLUTE EOSINOPHIL [2]: 14.67 CELLS/uL
- ABSOLUTE LYMPHOCYTE [2]: 9629.83 CELLS/uL
- ABSOLUTE MONOCYTE [2]: 72.5 CELLS/uL
- ABSOLUTE SEGMENTED NEUTROPHIL [2]: 1049.67 CELLS/uL
- BASOPHIL [2]: 0%
- EOSINOPHIL [2]: 0.17%
- ERYTHROCYTE COUNT [2]: 5.36 x10E6/uL
- HEMATOCRIT [2]: 33.82%
- HEMOGLOBIN [2]: 13.48 G/DL
- LEUKOCYTE COUNT [2]: 10.77 x10E3/uL
- LYMPHOCYTE [2]: 90.17%
- MEAN CORPUSCULAR HEMOGLOBIN [2]: 25.28 pg
- MEAN CORPUSCULAR HEMOGLOBIN CONCENTRATION [2]: 39.92 G/DL
- MEAN CORPUSCULAR VOLUME [2]: 63.3 fL
- MONOCYTE [2]: 0.67%
- NEUTROPHIL [2]: 9%
- NUCLEATED RED BLOOD CELLS [2]: 0.17 /100WBC
- PLATELET COUNT [2]: 1275.33 x10E3/uL
- ALANINE AMINOTRANSFERASE [2]: 93.67 u/L
- ALBUMIN [2]: 4.17 G/DL
- ALKALINE PHOSPHATASE [2]: 402.5 u/L
- ASPARTATE AMINOTRANSFERASE [2]: 122.83 u/L
- BLOOD UREA NITROGEN [2]: 14.75 mg/dL
- CARBON DIOXIDE [2]: 26.4 mmol/L
- CHLORIDE [2]: 98.5 MEQ/L
- CHOLESTEROL [2]: 57.5 mg/dL
- CREATINE PHOSPHOKINASE [2]: 305.17 u/L
- CREATININE [2]: 0.21 mg/dL
- GLUCOSE [2]: 142 mg/dL
- LACTATE DEHYDROGENASE [2]: 83.5 u/L
- LIPASE [2]: 85.83 u/L
- PHOSPHORUS [2]: 8.18 mg/dL
- POTASSIUM [2]: 5.46 MEQ/L
- SODIUM [2]: 144 MEQ/L
- TOTAL BILIRUBIN [2]: 0.25 mg/dL
- TOTAL PROTEIN [2]: 5.63 G/DL
- URIC ACID [2]: 0.8 mg/dL
- ABSOLUTE BASOPHIL [3]: 0 CELLS/uL
- ABSOLUTE EOSINOPHIL [3]: 35.67 CELLS/uL
- ABSOLUTE LYMPHOCYTE [3]: 8627 CELLS/uL
- ABSOLUTE MONOCYTE [3]: 90.33 CELLS/uL
- ABSOLUTE SEGMENTED NEUTROPHIL [3]: 547 CELLS/uL
- BASOPHIL [3]: 0%
- EOSINOPHIL [3]: 0.33%
- ERYTHROCYTE COUNT [3]: 5.35 x10E6/uL
- HEMATOCRIT [3]: 33.47%
- HEMOGLOBIN [3]: 13.5 G/DL
- LEUKOCYTE COUNT [3]: 9.3 x10E3/uL
- LYMPHOCYTE [3]: 92.67%
- MEAN CORPUSCULAR HEMOGLOBIN [3]: 25.27 pg
- MEAN CORPUSCULAR HEMOGLOBIN CONCENTRATION [3]: 40.33 G/DL
- MEAN CORPUSCULAR VOLUME [3]: 62.63 fL
- MONOCYTE [3]: 1%
- NEUTROPHIL [3]: 6%
- NUCLEATED RED BLOOD CELLS [3]: 0 /100WBC
- PLATELET COUNT [3]: 906.33 x10E3/uL
- ALANINE AMINOTRANSFERASE [3]: 76.33 u/L
- ALBUMIN [3]: 4 G/DL
- ALKALINE PHOSPHATASE [3]: 385 u/L
- ASPARTATE AMINOTRANSFERASE [3]: 87 u/L
- BLOOD UREA NITROGEN [3]: 12 mg/dL
- CARBON DIOXIDE [3]: 31.67 mmol/L
- CHLORIDE [3]: 98 MEQ/L
- CHOLESTEROL [3]: 61 mg/dL
- CREATINE PHOSPHOKINASE [3]: 318 u/L
- CREATININE [3]: 0.17 mg/dL
- GLUCOSE [3]: 154 mg/dL
- LACTATE DEHYDROGENASE [3]: 114.33 u/L
- LIPASE [3]: 9.67 u/L
- PHOSPHORUS [3]: 10.63 mg/dL
- POTASSIUM [3]: 5.46 MEQ/L
- SODIUM [3]: 142.7 MEQ/L
- TOTAL BILIRUBIN [3]: 0.17 mg/dL
- TOTAL PROTEIN [3]: 5.73 G/DL
- URIC ACID [3]: 0.77 mg/dL
